{"source": "patent US9085555B2", "about": "“Complement pathway modulators and uses thereof” (priority 2011, dated 2015)", "target": "Factor D (Homo sapiens (Human), UniProt P00746)", "sequence (P00746 26-253)": "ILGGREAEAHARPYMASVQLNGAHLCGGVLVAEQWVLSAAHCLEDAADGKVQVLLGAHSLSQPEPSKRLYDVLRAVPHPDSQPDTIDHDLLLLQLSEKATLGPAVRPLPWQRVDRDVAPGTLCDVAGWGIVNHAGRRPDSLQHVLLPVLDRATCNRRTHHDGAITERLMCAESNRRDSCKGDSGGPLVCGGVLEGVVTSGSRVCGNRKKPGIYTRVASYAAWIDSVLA", "assay": "biochemical", "format": "biochemical", "conditions": "read-out: IC50"}
{"molecule": "NC(=O)n1cc(NC(=O)N2CCS[C@H]2C(=O)NCc2cccc(F)c2F)c2ccccc21", "note": "[Example 169, (S)-Thiazolidine-2,3-dicarboxylic acid 3-[(1-carbamoyl-1H-indol-3-yl)-amide] 2-(2,3-difluoro-benzylamide)]", "values": [{"measurement": "IC50", "value": 268, "unit": "nM"}]}
{"molecule": "NC(=O)n1cc(NC(=O)N2CCC[C@H]2C(=O)NCc2cccc(Cl)c2F)c2ccccc21", "note": "[Example 170, (S)-Pyrrolidine-1,2-dicarboxylic acid 1-[(1-carbamoyl-1H-indol-3-yl)-amide] 2-(3-chloro-2-fluoro-benzylamide)]", "values": [{"measurement": "IC50", "value": 30, "unit": "nM"}]}
{"molecule": "NC(=O)n1cc(NC(=O)N2[C@@H]3C[C@@H]3C[C@H]2C(=O)Nc2cncc(Br)c2)c2ccccc21", "note": "[Example 171, (1R,3S,5R)-2-Aza-bicyclo[3.1.0]hexane-2,3-dicarboxylic acid 2-[(1-carbamoyl-1H-indol-3-yl)-amide] 3-[(5-bromo-pyridin-3-yl)-amide]]", "values": [{"measurement": "IC50", "value": 200, "unit": "nM"}]}
{"molecule": "NC(=O)n1cc(NC(=O)N2[C@@H]3C[C@@H]3C[C@H]2C(=O)Nc2ncccc2F)c2ccccc21", "note": "[Example 172, (1R,3S,5R)-2-Aza-bicyclo[3.1.0]hexane-2,3-dicarboxylic acid 2-[(1-carbamoyl-1H-indol-3-yl)-amide] 3-[(3-fluoro-pyridin-2-yl)-amide]]", "values": [{"measurement": "IC50", "value": 1050, "unit": "nM"}]}
{"molecule": "NC(=O)n1cc(NC(=O)N2CCS[C@H]2C(=O)NCc2cccc(Cl)c2)c2ccccc21", "note": "[Example 174, (S)-Thiazolidine-2,3-dicarboxylic acid 3-[(1-carbamoyl-1H-indol-3-yl)-amide] 2-(3-chloro-benzylamide)]", "values": [{"measurement": "IC50", "value": 35, "unit": "nM"}]}
{"molecule": "NC(=O)n1cc(NC(=O)N2C3CC3C[C@H]2C(=O)Nc2cccc(Cl)c2F)c2ccccc21", "note": "(stereo partly drawn) [Example 176, (1R,3S,5R)-2-Aza-bicyclo[3.1.0]hexane-2,3-dicarboxylic acid 2-[(1-carbamoyl-1H-indol-3-yl)-amide] 3-[(3-chloro-2-fluoro-phenyl)-amide]]", "values": [{"measurement": "IC50", "value": 30, "unit": "nM"}]}
{"molecule": "NC(=O)n1cc(NC(=O)N2CC[C@@H](O)[C@H]2C(=O)NCc2cccc(Cl)c2)c2ccccc21", "note": "[Example 177, (2S,3R)-3-Hydroxy-pyrrolidine-1,2-dicarboxylic acid 1-[(1-carbamoyl-1H-indol-3-yl)-amide] 2-(3-chloro-benzylamide)]", "values": [{"measurement": "IC50", "value": 85, "unit": "nM"}]}
{"molecule": "NC(=O)n1cc(NC(=O)N2CCS[C@H]2C(=O)NCc2cccc(Cl)c2F)c2ccccc21", "note": "[Example 178, (S)-Thiazolidine-2,3-dicarboxylic acid 3-[(1-carbamoyl-1H-indol-3-yl)-amide] 2-(3-chloro-2-fluoro-benzylamide)]", "values": [{"measurement": "IC50", "value": 6, "unit": "nM"}]}
{"molecule": "[N-]=[N+]=NC[C@H]1CC[C@@H](C(=O)Nc2cccc(OC(F)(F)F)c2)N1C(=O)Nc1cn(C(N)=O)c2ccccc12", "note": "[Example 179, (2S,5R)-5-azidomethyl-pyrrolidine-1,2-dicarboxylic acid 1-[(1-carbamoyl-1H-indol-3-yl)-amide]2-[(3-trifluoromethoxy-phenyl)-amide]]", "values": [{"measurement": "IC50", "value": 400, "unit": "nM"}]}
{"molecule": "NC(=O)n1cc(NC(=O)N2CC3(CC3)C[C@H]2C(=O)NCc2cccc(Cl)c2)c2ccccc21", "note": "[Example 180, (S)-5-Aza-spiro[2.4]heptane-5,6-dicarboxylic acid 5-[(1-carbamoyl-1H-indol-3-yl)-amide] 6-(3-chloro-benzylamide)]", "values": [{"measurement": "IC50", "value": 650, "unit": "nM"}]}
{"molecule": "NC(=O)n1cc(NC(=O)N2C[C@@](F)(CO)C[C@H]2C(=O)NCc2cccc(Cl)c2F)c2ccccc21", "note": "[Example 181, (2S,4R)-4-Fluoro-4-hydroxymethyl-pyrrolidine-1,2-dicarboxylic acid 1-[(1-carbamoyl-1H-indol-3-yl)-amide] 2-(3-chloro-2-fluoro-benzylamide)]", "values": [{"measurement": "IC50", "value": 20, "unit": "nM"}]}
{"molecule": "C[C@H]1C[C@@H](C(=O)NCc2cccc(Cl)c2F)N(C(=O)Nc2cn(C(N)=O)c3ccccc23)C1", "note": "[Example 182, (2S,4S)-4-Methyl-pyrrolidine-1,2-dicarboxylic acid 1-[(1-carbamoyl-1H-indol-3-yl)-amide] 2-(3-chloro-2-fluoro-benzylamide)]", "values": [{"measurement": "IC50", "value": 63, "unit": "nM"}]}
{"molecule": "NC(=O)n1cc(NC(=O)N2C3CC3C[C@H]2C(=O)NCc2cccc(Cl)c2)c2ccccc21", "note": "(stereo partly drawn) [Example 183, (1R,3S,5R)-2-Aza-bicyclo[3.1.0]hexane-2,3-dicarboxylic acid 2-[(1-carbamoyl-1H-indol-3-yl)-amide] 3-(3-chloro-benzylamide)]", "values": [{"measurement": "IC50", "value": 20, "unit": "nM"}]}
{"molecule": "COC[C@@]12C[C@@H](C(=O)NCc3cccc(Cl)c3F)N(C(=O)Nc3cn(C(N)=O)c4ccccc34)[C@@H]1C2", "note": "[Example 184, (1R,3S,5S)-5-Methoxymethyl-2-aza-bicyclo[3.1.0]hexane-2,3-dicarboxylic acid 2-[(1-carbamoyl-1H-indol-3-yl)-amide] 3-(3-chloro-2-fluoro-benzylamide)]", "values": [{"measurement": "IC50", "value": 9, "unit": "nM"}]}
{"molecule": "NC(=O)n1cc(NC(=O)N2C3CC3C[C@H]2C(=O)Nc2ccncc2F)c2ccccc21", "note": "(stereo partly drawn) [Example 185, (1R,3S,5R)-2-Aza-bicyclo[3.1.0]hexane-2,3-dicarboxylic acid 2-[(1-carbamoyl-1H-indol-3-yl)-amide] 3-[(3-fluoro-pyridin-4-yl)-amide]]", "values": [{"measurement": "IC50", "value": 550, "unit": "nM"}]}
{"molecule": "CO[C@@H]1CCN(C(=O)Nc2cn(C(N)=O)c3ccccc23)[C@@H]1C(=O)NCc1cccc(Cl)c1F", "note": "[Example 186, (2S,3R)-3-Methoxy-pyrrolidine-1,2-dicarboxylic acid 1-[(1-carbamoyl-1H-indol-3-yl)-amide] 2-(3-chloro-2-fluoro-benzylamide)]", "values": [{"measurement": "IC50", "value": 20, "unit": "nM"}]}
{"molecule": "N#C[C@H]1C[C@@H](C(=O)Nc2cccc(OC(F)(F)F)c2F)N(C(=O)Nc2cn(C(N)=O)c3ccccc23)C1", "note": "[Example 188, (2S,4S)-4-cyano-pyrrolidine-1,2-dicarboxylic acid 1-[(1-carbamoyl-1H-indol-3-yl)-amide]2-[(2-fluoro-3-trifluoromethoxy-phenyl)-amide]]", "values": [{"measurement": "IC50", "value": 1070, "unit": "nM"}]}
{"molecule": "CN(C)[C@@H]1CN(C(=O)Nc2cn(C(N)=O)c3ccccc23)[C@H](C(=O)NCc2cccc(Cl)c2F)[C@H]1F", "note": "[Example 189, (2R,3S,4R)-4-Dimethylamino-3-fluoro-pyrrolidine-1,2-dicarboxylic acid 1-[(1-carbamoyl-1H-indol-3-yl)-amide] 2-(3-chloro-2-fluoro-benzylamide)]", "values": [{"measurement": "IC50", "value": 942, "unit": "nM"}]}
{"molecule": "NC(=O)n1cc(NC(=O)N2CC[C@@H](F)[C@H]2C(=O)NCc2cccc(Cl)c2F)c2ccccc21", "note": "[Example 190, (2R,3R)-3-Fluoro-pyrrolidine-1,2-dicarboxylic acid 1-[(1-carbamoyl-1H-indol-3-yl)-amide] 2-(3-chloro-2-fluoro-benzylamide)]", "values": [{"measurement": "IC50", "value": 20, "unit": "nM"}]}
{"molecule": "C[C@@]1(C(=O)Nc2cccc(OC(F)(F)F)c2)CCCN1C(=O)Nc1cn(C(N)=O)c2ccccc12", "note": "[Example 192, (S)-2-Methyl-pyrrolidine-1,2-dicarboxylic acid 1-[(1-carbamoyl-1H-indol-3-yl)-amide] 2-[(3-trifluoromethoxy-phenyl)-amide]]", "values": [{"measurement": "IC50", "value": 17800, "unit": "nM"}]}
{"molecule": "NC(=O)n1cc(NC(=O)N2C[C@H](F)C[C@H]2C(=O)Nc2cncc(Cl)c2)c2ccccc21", "note": "[Example 193, (2S,4R)-4-Fluoro-pyrrolidine-1,2-dicarboxylic acid 1-[(1-carbamoyl-1H-indol-3-yl)-amide] 2-[(5-chloro-pyridin-3-yl)-amide]]", "values": [{"measurement": "IC50", "value": 160, "unit": "nM"}]}
{"molecule": "NC(=O)n1cc(NC(=O)N2C[C@H](F)C[C@H]2C(=O)Nc2cncc(Br)c2)c2ccccc21", "note": "[Example 194, (2S,4R)-4-Fluoro-pyrrolidine-1,2-dicarboxylic acid 1-[(1-carbamoyl-1H-indol-3-yl)-amide] 2-[(5-bromo-pyridin-3-yl)-amide]]", "values": [{"measurement": "IC50", "value": 93, "unit": "nM"}]}
{"molecule": "NC(=O)n1cc(NC(=O)N2[C@@H]3C[C@@H]3C[C@H]2C(=O)NCc2cccc(F)c2F)c2ccccc21", "note": "[Example 195, (1R,3S,5R)-2-Aza-bicyclo[3.1.0]hexane-2,3-dicarboxylic acid 2-[(1-carbamoyl-1H-indol-3-yl)-amide] 3-(2,3-difluoro-benzylamide)]", "values": [{"measurement": "IC50", "value": 14, "unit": "nM"}]}
{"molecule": "NC(=O)n1cc(NC(=O)N2C[C@@](O)(CO)C[C@H]2C(=O)NCc2cccc(Cl)c2F)c2ccccc21", "note": "[Example 196, (2S,4R)-4-Hydroxy-4-hydroxymethyl-pyrrolidine-1,2-dicarboxylic acid 1-[(1-carbamoyl-1H-indol-3-yl)-amide] 2-(3-chloro-2-fluoro-benzylamide)]", "values": [{"measurement": "IC50", "value": 700, "unit": "nM"}]}
{"molecule": "NC(=O)n1cc(NC(=O)N2C[C@H]3OC3[C@H]2C(=O)NCc2cccc(Cl)c2F)c2ccccc21", "note": "(stereo partly drawn) [Example 197, (1S,2S,5R)-6-Oxa-3-aza-bicyclo[3.1.0]hexane-2,3-dicarboxylic acid 3-[(1-carbamoyl-1H-indol-3-yl)-amide] 2-(3-chloro-2-fluoro-benzylamide)]", "values": [{"measurement": "IC50", "value": 100, "unit": "nM"}]}
{"molecule": "COC(=O)c1cc(Br)cc(NC(=O)[C@@H]2SCCN2C(=O)Nc2cn(C(N)=O)c3ccccc23)c1", "note": "[Example 198, 3-Bromo-5-{[(S)-3-(1-carbamoyl-1H-indol-3-ylcarbamoyl)-thiazolidine-2-carbonyl]-amino}-benzoic acid methyl ester]", "values": [{"measurement": "IC50", "value": 357, "unit": "nM"}]}
{"molecule": "Cn1nc(-c2ccccc2)cc1NC(=O)[C@@H]1CCCN1C(=O)Nc1cn(C(N)=O)c2ccccc12", "note": "[Example 199, (S)-Pyrrolidine-1,2-dicarboxylic acid 1-[(1-carbamoyl-1H-indol-3-yl)-amide] 2-[(2-methyl-5-phenyl-2H-pyrazol-3-yl)-amide]]", "values": [{"measurement": "IC50", "value": 8650, "unit": "nM"}]}
{"molecule": "COC(=O)[C@H]1C[C@@H](C(=O)NCc2cccc(Cl)c2F)N(C(=O)Nc2cn(C(N)=O)c3ccccc23)C1", "note": "[Example 200, (3S,5S)-1-(1-Carbamoyl-1H-indol-3-ylcarbamoyl)-5-(3-chloro-2-fluoro-benzylcarbamoyl)-pyrrolidine-3-carboxylic acid methyl ester]", "values": [{"measurement": "IC50", "value": 25, "unit": "nM"}]}
{"molecule": "NC(=O)n1cc(NC(=O)N2C[C@](O)(CO)C[C@H]2C(=O)NCc2cccc(Cl)c2F)c2ccccc21", "note": "[Example 202, (2S,4S)-4-Hydroxy-4-hydroxymethyl-pyrrolidine-1,2-dicarboxylic acid 1-[(1-carbamoyl-1H-indol-3-yl)-amide] 2-(3-chloro-2-fluoro-benzylamide)]", "values": [{"measurement": "IC50", "value": 450, "unit": "nM"}]}
{"molecule": "NC(=O)n1cc(NC(=O)N2[C@@H]3C[C@@H]3C[C@H]2C(=O)N[C@H](CO)c2cccc(Cl)c2F)c2ccccc21", "note": "[Example 203, (1R,3S,5R)-2-Aza-bicyclo[3.1.0]hexane-2,3-dicarboxylic acid 2-[(1-carbamoyl-1H-indol-3-yl)-amide] 3-{[(S)-1-(3-chloro-2-fluoro-phenyl)-2-hydroxy-ethyl]-amide}]", "values": [{"measurement": "IC50", "value": 6, "unit": "nM"}]}
